The subject of assay [1] is MUC1* extracellular domain - NME1 dimers / NME7AB interaction. Put plainly: direct binding (gold nanoparticle) assay of MUC1*-NME interaction. Also on record: species or system human. Conditions: previously shown. The text has this:
WO2009/042815 discloses that in a direct binding assay a series of carboline molecules inhibited the interaction between the extracellular domain of MUC1* and NME proteins, especially NME1 dimers and NME7AB. […] We tested a panel of ten small molecules, including three carbolines (FIG. 1), and biologicals for their ability to inhibit naïve stem cell pluripotency or growth compared to primed state stem cells.
Most of the novel compounds of the invention are carbolines or carboline-like molecules. […] However, in our nanoparticle assay, we can only determine that a compound disrupts the interaction between MUC1* extracellular domain peptide and NME1 dimers or NME7AB. We cannot tell if the compound does so by binding to MUC1* or its ligand. Recall that our compound hits are first identified in the stem cell drug screening assay for their ability to inhibit stem cell pluripotency or proliferation. […]
Recall that we had previously shown that some carbolines inhibited the binding of ligands NME1 or NME7AB to the extracellular domain of the MUC1* growth factor receptor. The assay we used was a gold nanoparticle assay that only gives a readout when the targeted interaction is disrupted, so it could not determine whether the carboloines disrupted binding of MUC1* to its ligands by binding to the ligand, NME7AB, or to MUC1*. […]

A further assay deals with T47D breast cancer cells. Put plainly: cancer cell migration, invasion assay (Platypus/Oris system). It is filed as cell-based, human. The note with it: FIG. 140. As for the experimental part:
We then tested an expanded panel of agents, including agents known to inhibit cancer growth or migration (FIG. 17) (Horm et al., 2012; Meng & Yue, 2014; Zhen et al., 2014), which is characteristic of aggressive or metastatic cancers. We also synthesized a series of novel small molecules, tested them in the stem cell drug screening assay, and then synthesized analogs of the best hits. These small molecules are pictured in FIGS. 18-27. Both the known compounds and the novel compounds were tested in the stem cell drug screening assay. The effects of the small molecules on naïve versus primed state stem cells are shown in the photographs of FIGS. 29-72. The small molecules pictured in FIGS. 17-27 and the biologicals were also tested in a cancer cell migration assay. A structure activity relationship table is seen in FIG. 28. Potent cancer cell migration is characteristic of cancer cell invasion of other tissues and of metastasis. Typical migration assays involve coating a cell culture plate with fibronectin, collagen or the like, plating cancer cells and making a scar across through the cells and measuring the time it takes for the cancer cells to invade the void space. An alternative approach that gives more reliable data is the Platypus System which is a special multi-well cell culture plate with a juxtaposed set of plugs that block off a circle in the center of each well. Cancer cells are plated while the plugs are in place, then they are removed after the cells attach to the plate surface. […] A bar graph summarizing the results of the known anti-migration compounds compared to the anti-MUC1* Fab E6 and the first few small molecules synthesized is shown in FIG. 73. The effect of two novel small molecules MN1186 and MN1194, compared to the known anti-migration molecule SU11274, is shown in FIG. 75A-75U. FIG. 75V is a graph showing the measured inhibition of cancer cell migration at time 0, 24 hours or 48 hours for a number of compounds. […] FIG. 75X is a graph showing how IC50's of the small molecules of the invention were measured and calculated.
Percent inhibition of cancer cell migration was performed in a wound healing assay. The Percent area that the invading cancer cells occupied, in the presence of a drug candidate compared to the controls, was quantified by Image J cell software which enables cell counting from photographs. IC50's were calculated by performing migration experiments at several compound concentrations and then applying Hill's equation. Inhibition of cancer cell proliferation was quantified by automated cell counting in the presence or absence of a drug candidate. Here, the potency of the drug candidate was simply scored 4 for the highest degree of inhibition and 0 for the lowest. […] The effect of each drug candidate was scored 0-4, with 4 being the highest in inhibiting cell proliferation (FIG. 28).
(§1) For the cancer cell migration experiment cancer cells were plated at varying densities into an Oris Cell Migration Assay Collagen-1 coated 96-well plate (Platypus Technologies LLC, Madison, Wis.). The Collagen-1 coated 96-well plate incorporates a specific vacuum plug which attaches to the bottom of each well, creating an area in which the cells cannot grow into. Once the cells have been plated at high densities into each well, they are allotted an 18-24 hour time period to attach to the bottom of the wells. Post-24 hour plugs are removed from the plate and then small molecule analogs are added to the wells. Images are taken of each well and represent time 0 (T=0) for each well. Images are taken of the wells at the 24, 48, 72, 96 and 120 hour time points. Data analysis is conducted using the images taken at these specific time point. Images are imported into ImageJ (Rasband, W. S., ImageJ, U. S. National Institutes of Health, Bethesda, Md., USA, http://imagej.nih.gov/ij/, 1997-2016.) and the area remaining free of cells is calculated. […]

Assay [2] concerns PC-3 prostate cancer cells. As to the kind of experiment: cancer cell migration assay with Fabs and N-10 peptide. It is filed as cell-based. Conditions: FIG. 140. As for the experimental part: (§2) The cancer sub-types that were tested were CHL-1 melanoma (MUC1*^+/NME7^+/NME7-X1^+), A2058 melanoma (MUC1*^+/NME7AB^+/NME7-X1^++), SK-OV-3 ovarian cancer (MUC1*^+/NME7^+/NME7-X1^+), A549 lung cancer (MUC1*^LO), T47D breast cancer (MUC1*^+++/NME7AB^+++/NME7-X1^+++), DU145 (MUC1*^++/NME7AB^+++/NME7-X1^+++) prostate cancer and PC-3 (MUC1*^−/NME7AB^+++/NME7-X1^+++) prostate cancer cells.
as §1, with “Data analysis is conducted using the images taken at these specific time point.” left out

The test system of assay [3] is DU145 prostate cancer cells. The assay is described as above. It is filed as cell-based. The note with it: FIG. 140. On the procedure: as §2
as §1, with “Data analysis is conducted using the images taken at these specific time point.” left out

This note sets out measurements from patent US11931347B2, “Method of screening for agents for differentiating stem cells” (MINERVA BIOTECHNOLOGIES CORPORATION, priority 2015, dated 2024).

In the case of “N-10 peptide: truncated MUC1* extracellular domain peptide QFNQYKTEAASRYNLTISDVSVSDVPFPFSAQSGA (SEQ ID NO:4) (N-10 peptide of PSMGFR in which ten amino acids at the N-terminus has been removed)”, the “competitive inhibition of NME ligand binding to MUC1* extracellular domain” value in assay [1] is given as “inhibits their binding to their cognate receptors including the MUC1* extracellular domain”. Moreover, the “inhibition of migration of T47D cells by Fabs and peptide” value in the assay on T47D breast cancer cells is given as “inhibited migration”. For the same substance, the “inhibition of migration of PC-3 cells by Fabs and peptide” value in assay [2] is on record as “only the N-10 peptide inhibited migration”. Also, the “inhibition of migration of DU145 prostate cancer cells by Fabs and peptide” value in assay [3] is listed as “inhibited migration”.
